Assay results: ChEMBL document CHEMBL4837239, “Identification of Thieno[3,2-d]pyrimidine Derivatives as Dual Inhibitors of Focal Adhesion Kinase and FMS-like Tyrosine Kinase 3” (J Med Chem, 2021)
The source made the active and inactive calls. No cut-off for these calls is given here.

Tests used:
HCT-116 [1] = assay: Antiinvasive activity in human HCT-116 cells assessed as suppression of invasion at 1 uM measured after 12 hrs by trans well experiment; format: functional
HCT-116 [2] = assay: Induction of apoptosis in human HCT-116 cells assessed as cleaved caspase-3 at 0.1 to 10 uM incubated for 24 hrs by Western blot analysis; format: functional, cell-based; settings: dose 0.1-10 µM
[3] = molecular target: Tyrosine-protein kinase Fes/Fps (Homo sapiens, UniProt P07332); assay: Inhibition of Fes (unknown origin)
[4] = molecular target: Tyrosine-protein kinase JAK3 (Homo sapiens) (UniProt P52333); assay: Inhibition of JAK3 (unknown origin) at 0.1 uM
HCT-116 [5] = assay: Induction of apoptosis in human HCT-116 cells assessed as cleaved PARP at 0.1 to 10 uM incubated for 24 hrs by Western blot analysis; format: functional, cell-based; settings: dose 0.1-10 µM
MDA-MB-231 [6] = assay: Antiproliferative activity against human MDA-MB-231 cells assessed as growth inhibition measured after 72 hrs by CellTiter-Glo assay; format: functional; settings: Homo sapiens, MDA-MB-231
[7] = Toxicity in mouse xenografted with human MV4-11 cells assessed as change in body weight at 20 to 50 mg/kg, po; format: organism-based; settings: in vivo, dose 20-50 mg/kg
[8] = molecular target: Tyrosine-protein kinase JAK3 (Homo sapiens, UniProt P52333); assay: Inhibition of JAK3 (unknown origin)
[9] = Inhibition of FLT3 D835Y (unknown origin); design: species or system Homo sapiens
Focal adhesion kinase 1 [10] = molecular target: T1, Focal adhesion kinase 1 (Homo sapiens, UniProt Q05397); assay: Inhibition of FAK in human HCT-116 cells assessed as inhibition of Pyk2 phosphorylation at 0.5 to 5 uM incubated for 24 hrs by Western blot analysis; format: cell-based; settings: dose 0.5-5 µM
BaF3 [11] = assay: Antiproliferative activity against mouse Ba/F3 cells assessed as growth inhibition measured after 72 hrs by CellTiter-Glo assay; format: functional; settings: Mus musculus, BaF3
MDA-MB-231 [12] = assay: Disruption of focal adhesion of human MDA-MB-231 cells assessed as decrease in F-actin measured after 3 hrs by Alexa Fluor 488-conjugated Ab based fluorescence analysis; format: functional; design: scale not given: the % may be the effect or the level left; settings: dose 1-10 µM, at 1 to 10 µM
[13] = Toxicity in Balb/c mouse xenografted with human MDA-MB-231 cells assessed as change in body weight at 40 to 70 mg/kg, po once daily measured for 16 days; format: organism-based; settings: in vivo, 384 h, dose 40-70 mg/kg, time 16 day
Focal adhesion kinase 1 [14] = molecular target: T1, Focal adhesion kinase 1; assay: Inhibition of FAK in human HCT-116 cells assessed as inhibition of paxillin phosphorylation at 0.5 to 5 uM incubated for 24 hrs by Western blot analysis; format: cell-based; settings: dose 0.5-5 µM
BaF3 [15] = assay: Antiproliferative activity against mouse Ba/F3 cells harbouring FLT3 ITD F691I mutant assessed as growth inhibition measured after 72 hrs by CellTiter-Glo assay; format: functional; settings: Mus musculus, BaF3
MDA-MB-231 [16] = assay: Antimetastatic activity against human MDA-MB-231 cells expressing firefly luciferase xenografted NSG orthotopic mouse model assessed as reduction in luminescence intensity at axillary lymph node at 70 mg/kg, po once daily measured for 2 weeks; format: functional, organism-based
[17] = molecular target: Epithelial discoidin domain-containing receptor 1 (Homo sapiens, UniProt Q08345); assay: Inhibition of DDR1 (unknown origin)
[18] = molecular target: Tyrosine-protein kinase Fyn (Homo sapiens, UniProt P06241); assay: Inhibition of Fyn (unknown origin)
Melanoma cell line = assay: Antiproliferative activity against human skin cancer cells assessed as growth inhibition measured after 72 hrs by MTT assay; format: functional, cell-based
Prostatic carcinoma cell = assay: Antiproliferative activity against human prostate cancer cells assessed as growth inhibition measured after 72 hrs by MTT assay; format: functional, cell-based
[19] = Toxicity in NSG orthotopic mouse xenografted with human MDA-MB-231 cells assessed as adverse effect at 40 to 70 mg/kg, po once daily measured for 2 weeks; format: organism-based; settings: in vivo, 336 h, dose 40-70 mg/kg
MDA-MB-231 [20] = assay: Antimigratory activity in human MDA-MB-231 cells assessed as suppression of migration at 1 uM measured after 12 hrs by scratch wound healing assay; format: functional
CYP2C19 = CYP2C19 (Homo sapiens, UniProt P33261); assay: Inhibition of CYP2C19 (unknown origin) at 10 uM relative to control; format: ADME
[21] = Antiproliferative activity against human A375P cells assessed as growth inhibition measured after 72 hrs by CellTiter-Glo assay; format: functional; settings: Homo sapiens, A375P
[22] = molecular target: Mitogen-activated protein kinase; ERK1/ERK2 (Homo sapiens) (UniProt P27361+P28482); assay: Inhibition of ERK1/2 autophosphorylation in human MDA-MB-231 cells at 0.5 to 5 uM incubated for 24 hrs by Western blot analysis; format: cell-based; settings: dose 0.5-5 µM
[23] = test system: T2, Receptor-type tyrosine-protein kinase FLT3 (Homo sapiens), P36888 [D835Y]; assay: Inhibition of FLT3-D835Y mutant (unknown origin) expressed in mouse BaF3 cells assessed as decrease in STAT5 phosphorylation at 1 nM by Western blot analysis; format: cell-based
T2 sequence (whole entry): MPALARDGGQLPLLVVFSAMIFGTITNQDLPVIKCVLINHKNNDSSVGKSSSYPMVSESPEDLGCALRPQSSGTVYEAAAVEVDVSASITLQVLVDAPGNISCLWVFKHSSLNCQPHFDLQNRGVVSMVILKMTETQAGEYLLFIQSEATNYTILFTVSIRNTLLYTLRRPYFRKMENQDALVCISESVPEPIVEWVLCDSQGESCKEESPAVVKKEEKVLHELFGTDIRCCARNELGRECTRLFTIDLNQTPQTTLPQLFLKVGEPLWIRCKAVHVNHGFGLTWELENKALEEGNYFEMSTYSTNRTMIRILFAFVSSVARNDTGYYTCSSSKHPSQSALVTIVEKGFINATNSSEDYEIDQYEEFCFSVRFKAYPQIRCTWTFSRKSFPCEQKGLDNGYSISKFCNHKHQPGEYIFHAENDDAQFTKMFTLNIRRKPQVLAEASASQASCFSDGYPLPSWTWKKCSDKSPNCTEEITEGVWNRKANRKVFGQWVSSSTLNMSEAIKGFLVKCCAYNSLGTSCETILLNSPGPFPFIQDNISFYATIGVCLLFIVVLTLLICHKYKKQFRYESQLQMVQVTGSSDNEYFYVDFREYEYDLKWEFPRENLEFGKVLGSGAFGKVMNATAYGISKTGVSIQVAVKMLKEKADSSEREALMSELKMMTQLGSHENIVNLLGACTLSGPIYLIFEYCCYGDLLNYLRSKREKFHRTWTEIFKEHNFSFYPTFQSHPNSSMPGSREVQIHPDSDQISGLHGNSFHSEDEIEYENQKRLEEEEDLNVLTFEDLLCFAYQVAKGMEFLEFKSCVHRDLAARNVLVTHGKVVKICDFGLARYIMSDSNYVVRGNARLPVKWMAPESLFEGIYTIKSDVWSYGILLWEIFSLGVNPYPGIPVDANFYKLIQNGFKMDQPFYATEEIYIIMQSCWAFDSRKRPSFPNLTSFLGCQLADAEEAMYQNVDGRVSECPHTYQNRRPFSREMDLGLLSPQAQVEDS

T1 sequence (Q05397 2-1052 limits assumed): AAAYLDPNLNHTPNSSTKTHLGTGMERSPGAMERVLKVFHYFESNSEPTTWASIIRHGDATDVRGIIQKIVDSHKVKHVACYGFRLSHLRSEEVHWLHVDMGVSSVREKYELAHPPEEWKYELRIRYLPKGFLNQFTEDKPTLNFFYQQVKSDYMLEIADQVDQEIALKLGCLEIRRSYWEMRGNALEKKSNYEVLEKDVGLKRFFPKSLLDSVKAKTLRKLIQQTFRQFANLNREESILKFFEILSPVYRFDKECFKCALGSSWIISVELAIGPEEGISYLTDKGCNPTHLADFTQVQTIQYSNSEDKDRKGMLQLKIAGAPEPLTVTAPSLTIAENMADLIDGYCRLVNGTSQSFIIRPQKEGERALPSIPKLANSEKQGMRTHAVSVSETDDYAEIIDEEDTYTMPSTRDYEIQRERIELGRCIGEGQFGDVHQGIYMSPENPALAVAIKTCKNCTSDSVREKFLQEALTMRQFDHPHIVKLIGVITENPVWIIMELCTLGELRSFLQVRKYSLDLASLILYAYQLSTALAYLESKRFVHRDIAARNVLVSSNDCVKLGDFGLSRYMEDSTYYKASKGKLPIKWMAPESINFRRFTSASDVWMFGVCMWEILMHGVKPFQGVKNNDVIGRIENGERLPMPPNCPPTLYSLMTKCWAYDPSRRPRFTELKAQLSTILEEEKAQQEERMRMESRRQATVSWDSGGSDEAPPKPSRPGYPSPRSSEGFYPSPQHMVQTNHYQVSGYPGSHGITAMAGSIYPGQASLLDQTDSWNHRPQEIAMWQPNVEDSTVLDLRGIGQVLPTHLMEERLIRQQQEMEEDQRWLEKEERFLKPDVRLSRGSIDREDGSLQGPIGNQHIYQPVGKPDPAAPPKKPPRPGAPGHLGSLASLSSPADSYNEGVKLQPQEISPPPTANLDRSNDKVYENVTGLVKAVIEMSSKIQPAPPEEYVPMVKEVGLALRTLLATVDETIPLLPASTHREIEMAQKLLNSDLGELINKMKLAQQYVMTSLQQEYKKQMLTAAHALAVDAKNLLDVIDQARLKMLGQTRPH
Tyrosine-protein kinase Fes/Fps, sequence (P07332 whole entry): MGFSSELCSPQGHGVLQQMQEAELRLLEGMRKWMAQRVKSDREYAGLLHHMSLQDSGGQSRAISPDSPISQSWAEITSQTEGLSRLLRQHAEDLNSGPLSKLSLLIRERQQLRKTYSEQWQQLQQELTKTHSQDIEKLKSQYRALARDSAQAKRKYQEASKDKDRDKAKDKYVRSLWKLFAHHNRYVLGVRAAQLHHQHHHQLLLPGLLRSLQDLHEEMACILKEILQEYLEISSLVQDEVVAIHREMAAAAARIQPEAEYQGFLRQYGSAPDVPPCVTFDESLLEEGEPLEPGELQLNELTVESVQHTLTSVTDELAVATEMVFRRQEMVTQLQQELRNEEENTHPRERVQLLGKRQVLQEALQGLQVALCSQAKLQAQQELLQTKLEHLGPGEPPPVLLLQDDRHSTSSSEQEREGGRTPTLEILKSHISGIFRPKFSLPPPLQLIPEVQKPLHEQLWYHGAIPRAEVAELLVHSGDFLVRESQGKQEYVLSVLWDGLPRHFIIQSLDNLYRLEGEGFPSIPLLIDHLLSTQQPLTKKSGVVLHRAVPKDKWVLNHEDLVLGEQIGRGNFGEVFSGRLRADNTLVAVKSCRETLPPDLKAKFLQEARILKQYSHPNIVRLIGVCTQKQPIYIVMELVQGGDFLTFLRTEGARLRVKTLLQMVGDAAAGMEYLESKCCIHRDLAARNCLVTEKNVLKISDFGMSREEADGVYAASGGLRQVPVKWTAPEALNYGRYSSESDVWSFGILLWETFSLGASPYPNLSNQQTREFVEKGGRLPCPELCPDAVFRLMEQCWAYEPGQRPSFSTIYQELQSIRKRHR
Tyrosine-protein kinase Fyn, sequence (P06241 whole entry): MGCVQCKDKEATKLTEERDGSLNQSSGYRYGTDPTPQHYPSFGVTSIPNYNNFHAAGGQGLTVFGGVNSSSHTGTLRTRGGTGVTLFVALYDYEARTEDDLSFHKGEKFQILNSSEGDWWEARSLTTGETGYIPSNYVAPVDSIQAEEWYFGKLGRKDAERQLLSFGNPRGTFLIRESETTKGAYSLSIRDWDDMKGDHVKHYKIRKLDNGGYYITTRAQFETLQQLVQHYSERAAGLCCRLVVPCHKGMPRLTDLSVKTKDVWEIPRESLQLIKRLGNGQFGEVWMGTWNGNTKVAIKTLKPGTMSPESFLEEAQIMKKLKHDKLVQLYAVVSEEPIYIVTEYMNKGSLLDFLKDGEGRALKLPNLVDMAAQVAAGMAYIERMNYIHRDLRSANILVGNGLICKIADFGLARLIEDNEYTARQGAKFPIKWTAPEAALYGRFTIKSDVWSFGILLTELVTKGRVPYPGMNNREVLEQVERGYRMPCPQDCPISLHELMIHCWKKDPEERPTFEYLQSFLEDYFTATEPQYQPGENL
CYP2C19, sequence (P33261 whole entry): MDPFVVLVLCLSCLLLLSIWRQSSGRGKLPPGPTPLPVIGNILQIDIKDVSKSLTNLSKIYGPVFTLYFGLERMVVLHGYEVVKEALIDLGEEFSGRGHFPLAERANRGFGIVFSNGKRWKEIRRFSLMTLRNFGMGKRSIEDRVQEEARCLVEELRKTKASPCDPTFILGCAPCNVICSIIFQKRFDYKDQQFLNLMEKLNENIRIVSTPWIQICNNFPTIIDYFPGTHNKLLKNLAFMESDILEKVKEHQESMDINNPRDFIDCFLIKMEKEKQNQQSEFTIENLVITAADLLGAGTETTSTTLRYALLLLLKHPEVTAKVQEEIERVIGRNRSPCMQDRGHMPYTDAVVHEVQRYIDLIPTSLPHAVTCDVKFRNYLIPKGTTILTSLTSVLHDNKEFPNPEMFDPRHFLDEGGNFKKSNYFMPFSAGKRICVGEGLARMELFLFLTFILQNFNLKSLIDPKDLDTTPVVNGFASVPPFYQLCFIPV
Epithelial discoidin domain-containing receptor 1, sequence (Q08345 whole entry, the tested form may be a part): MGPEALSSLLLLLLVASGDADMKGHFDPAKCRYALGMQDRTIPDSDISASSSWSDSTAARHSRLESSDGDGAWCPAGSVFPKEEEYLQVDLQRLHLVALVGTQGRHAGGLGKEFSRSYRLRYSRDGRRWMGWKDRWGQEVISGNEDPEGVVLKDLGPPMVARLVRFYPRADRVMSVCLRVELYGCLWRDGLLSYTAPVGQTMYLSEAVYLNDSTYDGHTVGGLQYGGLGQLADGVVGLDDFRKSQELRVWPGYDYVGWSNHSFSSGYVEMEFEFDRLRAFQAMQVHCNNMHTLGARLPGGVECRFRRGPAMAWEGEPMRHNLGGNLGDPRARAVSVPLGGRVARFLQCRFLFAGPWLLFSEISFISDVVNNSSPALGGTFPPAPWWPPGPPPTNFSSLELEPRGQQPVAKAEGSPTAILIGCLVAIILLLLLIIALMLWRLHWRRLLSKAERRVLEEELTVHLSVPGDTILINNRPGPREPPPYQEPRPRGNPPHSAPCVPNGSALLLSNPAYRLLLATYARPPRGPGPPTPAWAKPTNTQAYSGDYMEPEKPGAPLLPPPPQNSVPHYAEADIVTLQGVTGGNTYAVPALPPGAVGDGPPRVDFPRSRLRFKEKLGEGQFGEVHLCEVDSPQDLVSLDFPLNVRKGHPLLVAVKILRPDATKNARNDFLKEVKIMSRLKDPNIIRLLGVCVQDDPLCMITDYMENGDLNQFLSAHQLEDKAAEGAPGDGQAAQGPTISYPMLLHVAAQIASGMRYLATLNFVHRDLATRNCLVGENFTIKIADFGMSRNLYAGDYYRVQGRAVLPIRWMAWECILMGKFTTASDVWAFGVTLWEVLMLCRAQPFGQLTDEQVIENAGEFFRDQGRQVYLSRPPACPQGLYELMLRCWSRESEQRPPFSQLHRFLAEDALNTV
Tyrosine-protein kinase JAK3 (Homo sapiens), sequence (P52333 whole entry): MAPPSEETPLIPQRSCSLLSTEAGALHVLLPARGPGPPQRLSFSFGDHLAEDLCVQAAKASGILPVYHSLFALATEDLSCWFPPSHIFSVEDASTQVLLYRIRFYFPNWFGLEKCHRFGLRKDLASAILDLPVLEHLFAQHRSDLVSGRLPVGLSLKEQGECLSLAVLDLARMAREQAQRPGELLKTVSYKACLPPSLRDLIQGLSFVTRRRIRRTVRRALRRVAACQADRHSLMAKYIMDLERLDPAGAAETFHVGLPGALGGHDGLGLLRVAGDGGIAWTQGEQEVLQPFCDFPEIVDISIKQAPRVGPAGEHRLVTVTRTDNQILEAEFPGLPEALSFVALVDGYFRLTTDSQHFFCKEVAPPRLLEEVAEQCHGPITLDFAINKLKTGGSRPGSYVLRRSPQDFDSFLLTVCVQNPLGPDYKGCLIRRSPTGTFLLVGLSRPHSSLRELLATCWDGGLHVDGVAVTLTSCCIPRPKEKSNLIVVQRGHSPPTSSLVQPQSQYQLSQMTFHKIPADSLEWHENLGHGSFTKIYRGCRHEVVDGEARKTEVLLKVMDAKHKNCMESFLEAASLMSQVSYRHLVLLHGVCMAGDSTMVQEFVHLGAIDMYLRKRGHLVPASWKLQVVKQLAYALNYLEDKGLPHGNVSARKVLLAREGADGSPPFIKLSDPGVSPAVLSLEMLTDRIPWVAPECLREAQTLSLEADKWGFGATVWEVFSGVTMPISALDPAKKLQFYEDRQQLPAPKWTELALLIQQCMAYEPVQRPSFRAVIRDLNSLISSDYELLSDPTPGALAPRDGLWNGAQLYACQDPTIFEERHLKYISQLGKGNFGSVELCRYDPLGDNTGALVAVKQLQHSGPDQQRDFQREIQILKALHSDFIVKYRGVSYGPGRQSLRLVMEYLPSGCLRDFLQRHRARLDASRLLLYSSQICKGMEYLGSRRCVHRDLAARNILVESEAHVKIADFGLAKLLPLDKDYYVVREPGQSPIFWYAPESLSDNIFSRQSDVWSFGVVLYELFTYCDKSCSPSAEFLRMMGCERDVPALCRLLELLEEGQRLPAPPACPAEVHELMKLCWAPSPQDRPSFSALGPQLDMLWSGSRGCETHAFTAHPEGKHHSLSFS
Tyrosine-protein kinase JAK3, sequence (P52333 whole entry): as above

IC50 [3]: 4.9 nM
inhibition [4]: 96.7%
GI50 (MDA-MB-231 [6]): 470 nM
IC50 [8]: 3.2 nM
IC50 [9]: < 0.5 nM
inhibition (Focal adhesion kinase 1 [10]): Active
GI50 (BaF3 [11]): 428 nM
inhibition (Focal adhesion kinase 1 [14]): Active
GI50 (BaF3 [15]): 114 nM
IC50 [17]: 4.4 nM
IC50 [18]: 7.7 nM
inhibition at 10 µM (CYP2C19): 90.6%
inhibition [22]: inactive
inhibition [23]: Active
SMILES: CCN1CCN(c2ccc(Nc3ncc4scc(-c5cccc(NS(C)(=O)=O)c5)c4n3)cc2)CC1
inhibition at 1 µM (HCT-116 [1]): 50%
Activity (HCT-116 [2]): Active
Activity (HCT-116 [5]): Active
Activity [7]: Non-Toxic
Activity (MDA-MB-231 [12]): 50%
Activity [13]: Non-Toxic
Activity (MDA-MB-231 [16]): Active
Activity (Melanoma cell line): Active
Activity (Prostatic carcinoma cell): Active
Activity [19]: Non-Toxic
inhibition at 1 µM (MDA-MB-231 [20]): 50%
GI50 [21]: 370 nM
